From patent publication US12268674B2, “Mi-2β inhibitor as an immunotherapy agent” (BioVentures, LLC, priority 2021, dated 2025) come the findings set out here.

The target in one experiment is T1, TOR3A (Homo sapiens, UniProt Q9H497).
T1 construct: to get the native cell lysate; endogenous in cells; host or cells: A375 cell lysate
The experiment can be described thus: ATPase profile (ATP acyl phosphate probe). Particulars: SEQ ID NO: 206, ATP BS. It counts as binding.

A further experiment addresses T2, MVK (Homo sapiens, UniProt Q03426).
T2 construct: to get the native cell lysate; endogenous in cells; host or cells: A375
The experiment can be described thus: ATPase profile (ATP acyl phosphate probe). Particulars: SEQ ID NO: 127, ATP BS. Format: binding.

The target in another experiment is T3, PMS2 (Homo sapiens, UniProt P54278).
T3 construct: to get the native cell lysate; endogenous in cells; host or cells: A375 cell lysate
The experiment can be described thus: ATPase profile (ATP acyl phosphate probe). Conditions: PMS2, SEQ ID NO: 162, ATP BS. It counts as binding.

In another experiment the test system is VPS4A, VPS4B. The experiment can be described thus: ATPase profile (ATP acyl phosphate probe). Format: binding. Particulars: SEQ ID NO: 229, ATP BS.
A further experiment addresses T4, PSMC3 (Homo sapiens, UniProt P17980).
T4 construct: to get the native cell lysate; endogenous in cells; host or cells: A375 cell lysate
The experiment can be described thus: ATPase profile (ATP acyl phosphate probe). Conditions: PSMC3, SEQ ID NO: 175, ATP BS. Format: binding.

The next experiment concerns the target UBA1 (Homo sapiens, UniProt P22314). The experiment can be described thus: ATPase profile (ATP acyl phosphate probe). Particulars: UBA1, SEQ ID NO: 217, ATP BS. Format: binding.
In experiment [1] the target is T5, recombinant purified human Mi-2β protein (Homo sapiens, UniProt Q14839).
T5 construct: made in house
Briefly: FRET-based nucleosome repositioning assay (EpiDyne-FRET). Format: biochemical. The procedure:
To screen small molecules that inhibit Mi-2β activity, Homology Modeling was carried out using Structure Prediction Wizard in Prime (49, 50). Mi-2β belongs to the CHD family of chromatin remodelers, which share highly conserved ATPase/helicase domains (51, 52). The Homology Model of Mi-2β was generated using the yeast CHD1 structure (PDB code: 3MWY) as template and the sequence was obtained from Uniprot (53), which clearly depicted the interaction of Mi-2β binding pocket and ATP (FIG. 10a). Virtual screening was done with the enzyme hinge region ligands database and nucleoside mimetic database from Enamine. All ligands of ˜23,010 compounds were docked to the ATP binding site using SP docking and post-processed with Prime MM-GBSA. Ligands with a methyldihydroimidazopyridinone structure were predicted to bind best to the ATP binding region of Mi-2β. To analyze biochemically the inhibitory activity of those inhibitors, a Fluorescence Resonance Energy Transfer (FRET)-based nucleosome repositioning assay (54, 55) was designed and modified using recombinant purified human Mi-2β protein to screen an in-house library of small molecular compounds with a methyldihydroimidazopyridinone structure (FIG. 10b). Briefly, the recombinant nucleosome substrates consist of a Cy5-labeled human histone octamer (H2A T120C-Cy5) wrapped with 5′ Cy3-labeled DNA, which contains a terminal nucleosome 601 positioning sequence. The 601 sequence provides the most thermodynamically preferred locations on DNA for histone octamer (56). FRET signaling was monitored by exciting the nucleosomes at the Cy3 absorption maximum and measuring Cy5 emissions and consequently the FRET signal is at a maximum at the assembled starting point. In the presence of ATP, Mi-2β induces the histone octamer to translocate along the DNA such that the Cy3-labeled DNA 5′ end is moved away from the Cy5-labeled octamer and consequently the FRET signal is decreased (FIG. 10b). The reaction conditions for nucleosome repositioning were modified through multiple rounds of optimization and validation (FIG. 10c-d). […]

The target of a further experiment is T6, PMVK (Homo sapiens, UniProt Q15126).
T6 construct: to get the native cell lysate; endogenous in cells; host or cells: A375 cell lysate
The experiment can be described thus: ATPase profile (ATP acyl phosphate probe). It counts as binding. Particulars: SEQ ID NO: 163, ATP BS.

Another experiment deals with T7, ATAD1 (Homo sapiens, UniProt Q8NBU5).
T7 construct: to get the native cell lysate; host or cells: A375 cell lysate
The experiment can be described thus: ATPase profile (ATP acyl phosphate probe). It counts as binding. Particulars: ATAD1, SEQ ID NO: 44, ATP BS.

A further experiment concerns the target T8, TK2 (Homo sapiens, UniProt O00142).
T8 construct: to get the native cell lysate; endogenous in cells; host or cells: A375 cell lysate
Briefly: ATPase profile (ATP acyl phosphate probe). Format: binding. Particulars: TK2, SEQ ID NO: 201, ATP BS.

Another experiment addresses T9, ABCC2 (Homo sapiens, UniProt Q92887).
T9 construct: to get the native cell lysate; host or cells: A375 cell lysate
The experiment can be described thus: ATPase profile (ATP acyl phosphate probe). Format: binding. Particulars: ABCC2, SEQ ID NO: 8, ATP BS.

For another experiment, the target named is T10, MDN1 (Homo sapiens, UniProt Q9NU22).
T10 construct: to get the native cell lysate; endogenous in cells; host or cells: A375
Briefly: ATPase profile (ATP acyl phosphate probe). It counts as binding. Particulars: MDN1, SEQ ID NO: 121, ATP BS.

The next experiment addresses T11, HARS (Homo sapiens, UniProt P12081).
T11 construct: endogenous in cells; host or cells: A375 cell lysate
The experiment can be described thus: ATPase profile (ATP acyl phosphate probe). Format: binding. Particulars: SEQ ID NO: 89, ATP BS.

A further experiment deals with T12, MMAB (Homo sapiens, UniProt Q96EY8).
T12 construct: to get the native cell lysate; endogenous in cells; host or cells: A375
Briefly: ATPase profile (ATP acyl phosphate probe). It counts as binding. Conditions: SEQ ID NO: 124, ATP BS.

T5 sequence (Q14839 whole entry): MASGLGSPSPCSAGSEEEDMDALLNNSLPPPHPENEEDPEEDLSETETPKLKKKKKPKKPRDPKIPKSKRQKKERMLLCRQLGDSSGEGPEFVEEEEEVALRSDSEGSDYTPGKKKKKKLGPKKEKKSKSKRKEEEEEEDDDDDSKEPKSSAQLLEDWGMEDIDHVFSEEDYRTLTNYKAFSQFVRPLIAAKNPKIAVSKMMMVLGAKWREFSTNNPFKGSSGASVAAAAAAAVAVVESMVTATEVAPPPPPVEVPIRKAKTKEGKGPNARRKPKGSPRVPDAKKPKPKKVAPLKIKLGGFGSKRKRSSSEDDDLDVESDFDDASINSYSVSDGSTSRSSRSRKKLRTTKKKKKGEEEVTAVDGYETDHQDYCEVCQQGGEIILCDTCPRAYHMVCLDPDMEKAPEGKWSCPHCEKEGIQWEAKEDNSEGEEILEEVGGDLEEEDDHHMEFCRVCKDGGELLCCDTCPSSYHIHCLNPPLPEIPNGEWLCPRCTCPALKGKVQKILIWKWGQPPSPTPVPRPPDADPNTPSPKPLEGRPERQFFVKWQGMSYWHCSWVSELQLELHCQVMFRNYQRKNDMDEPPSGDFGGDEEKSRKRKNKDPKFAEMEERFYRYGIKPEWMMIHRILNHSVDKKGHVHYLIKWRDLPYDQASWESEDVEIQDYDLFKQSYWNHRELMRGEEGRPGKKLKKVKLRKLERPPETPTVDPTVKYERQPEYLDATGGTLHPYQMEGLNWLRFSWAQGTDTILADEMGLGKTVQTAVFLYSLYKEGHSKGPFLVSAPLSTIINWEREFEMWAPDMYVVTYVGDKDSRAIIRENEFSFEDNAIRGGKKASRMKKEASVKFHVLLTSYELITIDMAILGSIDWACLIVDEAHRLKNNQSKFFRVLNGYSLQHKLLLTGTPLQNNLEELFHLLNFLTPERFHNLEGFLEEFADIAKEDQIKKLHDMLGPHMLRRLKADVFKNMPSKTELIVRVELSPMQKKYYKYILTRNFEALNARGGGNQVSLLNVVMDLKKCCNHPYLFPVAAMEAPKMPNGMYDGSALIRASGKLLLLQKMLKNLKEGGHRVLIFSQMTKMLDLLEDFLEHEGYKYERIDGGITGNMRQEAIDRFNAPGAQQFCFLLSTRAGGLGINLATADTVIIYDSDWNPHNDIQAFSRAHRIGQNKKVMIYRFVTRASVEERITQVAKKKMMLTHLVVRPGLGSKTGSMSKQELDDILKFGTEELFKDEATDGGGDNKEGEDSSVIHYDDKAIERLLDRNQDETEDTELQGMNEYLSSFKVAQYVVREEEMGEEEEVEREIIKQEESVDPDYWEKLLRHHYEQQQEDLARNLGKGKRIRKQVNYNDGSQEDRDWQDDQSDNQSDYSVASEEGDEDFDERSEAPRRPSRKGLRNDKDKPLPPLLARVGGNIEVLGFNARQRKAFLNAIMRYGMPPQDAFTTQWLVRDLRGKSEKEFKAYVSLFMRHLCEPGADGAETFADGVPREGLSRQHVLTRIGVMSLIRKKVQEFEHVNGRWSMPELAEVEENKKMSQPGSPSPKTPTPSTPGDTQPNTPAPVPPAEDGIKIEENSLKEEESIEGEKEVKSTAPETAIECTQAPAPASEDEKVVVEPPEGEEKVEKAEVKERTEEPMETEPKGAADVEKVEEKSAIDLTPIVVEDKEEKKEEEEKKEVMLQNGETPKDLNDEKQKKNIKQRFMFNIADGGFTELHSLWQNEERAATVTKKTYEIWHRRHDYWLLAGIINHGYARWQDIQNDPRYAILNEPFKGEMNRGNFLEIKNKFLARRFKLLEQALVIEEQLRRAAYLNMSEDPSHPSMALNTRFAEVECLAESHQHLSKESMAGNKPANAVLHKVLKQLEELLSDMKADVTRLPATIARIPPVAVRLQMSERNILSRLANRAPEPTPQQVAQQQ
T9 sequence (Q92887 whole entry): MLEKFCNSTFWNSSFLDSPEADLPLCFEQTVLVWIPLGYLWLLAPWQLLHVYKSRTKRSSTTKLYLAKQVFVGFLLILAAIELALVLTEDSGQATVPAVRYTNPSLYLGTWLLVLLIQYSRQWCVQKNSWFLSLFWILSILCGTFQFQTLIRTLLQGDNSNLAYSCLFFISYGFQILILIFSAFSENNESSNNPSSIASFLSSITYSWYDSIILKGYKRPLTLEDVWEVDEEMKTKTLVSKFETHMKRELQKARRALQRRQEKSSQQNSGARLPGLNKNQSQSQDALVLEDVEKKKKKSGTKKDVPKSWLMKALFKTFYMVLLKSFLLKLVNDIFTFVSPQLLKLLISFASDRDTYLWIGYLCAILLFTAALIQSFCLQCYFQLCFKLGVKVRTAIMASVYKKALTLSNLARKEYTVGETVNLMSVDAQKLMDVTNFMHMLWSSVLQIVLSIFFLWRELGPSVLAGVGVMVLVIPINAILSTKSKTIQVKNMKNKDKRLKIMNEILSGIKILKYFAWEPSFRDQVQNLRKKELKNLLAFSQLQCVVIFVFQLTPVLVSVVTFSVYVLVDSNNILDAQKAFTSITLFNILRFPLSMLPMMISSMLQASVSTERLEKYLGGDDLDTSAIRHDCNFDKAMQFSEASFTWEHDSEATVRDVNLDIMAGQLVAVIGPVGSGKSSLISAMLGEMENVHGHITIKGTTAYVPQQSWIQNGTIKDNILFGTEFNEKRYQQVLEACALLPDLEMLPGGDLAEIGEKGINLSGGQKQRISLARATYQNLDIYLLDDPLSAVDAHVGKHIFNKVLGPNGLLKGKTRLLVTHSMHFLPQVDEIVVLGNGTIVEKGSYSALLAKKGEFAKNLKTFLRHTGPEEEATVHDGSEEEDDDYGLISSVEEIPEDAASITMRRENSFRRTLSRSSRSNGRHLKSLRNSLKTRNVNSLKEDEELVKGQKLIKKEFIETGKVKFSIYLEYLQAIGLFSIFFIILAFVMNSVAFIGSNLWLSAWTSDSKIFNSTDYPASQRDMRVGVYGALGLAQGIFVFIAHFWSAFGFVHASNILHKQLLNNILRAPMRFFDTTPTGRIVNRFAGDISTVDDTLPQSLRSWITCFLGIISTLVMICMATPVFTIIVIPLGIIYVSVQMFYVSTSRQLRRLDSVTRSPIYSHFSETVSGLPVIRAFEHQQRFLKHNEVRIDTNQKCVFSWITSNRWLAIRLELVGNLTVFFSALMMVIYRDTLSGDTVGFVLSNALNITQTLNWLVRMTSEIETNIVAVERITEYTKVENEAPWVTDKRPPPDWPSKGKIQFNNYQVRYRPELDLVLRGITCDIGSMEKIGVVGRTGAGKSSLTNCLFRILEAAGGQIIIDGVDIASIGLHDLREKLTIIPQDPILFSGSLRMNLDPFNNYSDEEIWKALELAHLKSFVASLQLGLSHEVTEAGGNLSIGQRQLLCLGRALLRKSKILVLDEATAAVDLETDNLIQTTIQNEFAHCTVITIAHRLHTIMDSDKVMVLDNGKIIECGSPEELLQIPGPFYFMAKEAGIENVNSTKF
T1 sequence (Q9H497 26-397): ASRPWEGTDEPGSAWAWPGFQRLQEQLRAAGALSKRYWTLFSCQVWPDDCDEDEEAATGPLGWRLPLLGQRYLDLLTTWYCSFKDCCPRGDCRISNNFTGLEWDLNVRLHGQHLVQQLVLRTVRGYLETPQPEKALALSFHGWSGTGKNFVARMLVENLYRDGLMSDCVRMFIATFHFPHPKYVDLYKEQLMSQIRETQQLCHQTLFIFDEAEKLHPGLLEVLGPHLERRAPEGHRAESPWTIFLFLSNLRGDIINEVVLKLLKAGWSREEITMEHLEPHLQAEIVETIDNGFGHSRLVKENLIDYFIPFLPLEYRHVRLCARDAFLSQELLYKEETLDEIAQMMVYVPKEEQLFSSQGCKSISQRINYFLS
T11 sequence (P12081 whole entry): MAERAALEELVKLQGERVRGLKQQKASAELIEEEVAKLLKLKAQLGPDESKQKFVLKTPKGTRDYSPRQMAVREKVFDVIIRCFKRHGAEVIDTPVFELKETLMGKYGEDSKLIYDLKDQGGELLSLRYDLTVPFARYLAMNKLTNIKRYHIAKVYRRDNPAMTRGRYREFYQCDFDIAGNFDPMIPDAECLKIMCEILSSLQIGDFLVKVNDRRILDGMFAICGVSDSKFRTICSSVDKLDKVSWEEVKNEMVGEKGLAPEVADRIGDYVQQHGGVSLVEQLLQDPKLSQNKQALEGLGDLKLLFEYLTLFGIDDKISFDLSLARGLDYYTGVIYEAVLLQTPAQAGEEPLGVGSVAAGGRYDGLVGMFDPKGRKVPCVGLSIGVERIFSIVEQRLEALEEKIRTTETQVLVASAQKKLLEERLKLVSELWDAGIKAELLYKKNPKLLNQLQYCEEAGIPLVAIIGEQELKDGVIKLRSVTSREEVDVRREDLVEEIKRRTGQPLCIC
T7 sequence (Q8NBU5 whole entry): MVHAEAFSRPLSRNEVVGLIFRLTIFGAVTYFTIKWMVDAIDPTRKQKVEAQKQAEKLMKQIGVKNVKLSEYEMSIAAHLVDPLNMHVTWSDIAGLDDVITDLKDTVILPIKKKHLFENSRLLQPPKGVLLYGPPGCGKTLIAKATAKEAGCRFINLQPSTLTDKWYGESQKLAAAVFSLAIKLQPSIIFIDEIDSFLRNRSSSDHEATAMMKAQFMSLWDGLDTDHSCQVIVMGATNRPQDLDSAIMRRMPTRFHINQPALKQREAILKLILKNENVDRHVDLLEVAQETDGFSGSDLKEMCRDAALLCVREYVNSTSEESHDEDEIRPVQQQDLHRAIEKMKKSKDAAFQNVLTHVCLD
T8 sequence (O00142 34-265): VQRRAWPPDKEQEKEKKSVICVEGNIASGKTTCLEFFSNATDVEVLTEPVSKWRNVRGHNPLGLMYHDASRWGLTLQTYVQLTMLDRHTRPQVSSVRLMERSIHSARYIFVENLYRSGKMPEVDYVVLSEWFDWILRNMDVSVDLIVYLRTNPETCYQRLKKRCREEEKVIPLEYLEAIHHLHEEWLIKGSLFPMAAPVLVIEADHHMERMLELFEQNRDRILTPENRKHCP

Usually IC50 stands for the concentration that gives 50% inhibition. Take `Cn1c(=O)[nH]c2ccc(-c3cccc(C(=O)NC4CCn5ccnc5C4)c3)cc21` (stereo not drawn) [Z36-MP5, 3-(3-methyl-2-oxo-2,3-dihydro-1H-benzo[d]imidazol-5-yl)-N-(5,6,7,8-tetrahydroimidazo[1,2-a]pyridin-7-yl)benzamide]: the “Inhibition (%) by 1 μM Z36-MP5” value on TOR3A is on record as 6.55%; at MVK it was 15.38%; on PMS2 it was 3.36%; in the experiment with VPS4A, VPS4B, −2.55%; at PSMC3 it was 5.71%; at UBA1, −4.55%. Also, the “Inhibition (%) by 1 μM Z36-MP5” value on PMVK is listed as −5.60%; at ATAD1, 15.67%; on TK2, 14.43%; on ABCC2, 4.09%; on MDN1 it was 3.28%; at HARS it was 4.68%. Moreover, at MMAB, the “Inhibition (%) by 1 μM Z36-MP5” value is given as −4.08%. Besides, the IC50 in [1] (FRET-based nucleosome repositioning assay, read-out: IC50 against Mi-2β) was 0.082 ± 0.013 µM. The “fold more potent than the original compound Z36” value in experiment [1] (ratio of IC50 against Mi-2β) is listed as around 85 fold.
